Assay results from article doi:10.1101/2025.01.30.635686v1 (biorxiv, 2025).

Target: T1, YME1LAAA (monomeric AAA+ domain) (Homo sapiens, UniProt Q96TA2)
T1 sequence (Q96TA2 317-588): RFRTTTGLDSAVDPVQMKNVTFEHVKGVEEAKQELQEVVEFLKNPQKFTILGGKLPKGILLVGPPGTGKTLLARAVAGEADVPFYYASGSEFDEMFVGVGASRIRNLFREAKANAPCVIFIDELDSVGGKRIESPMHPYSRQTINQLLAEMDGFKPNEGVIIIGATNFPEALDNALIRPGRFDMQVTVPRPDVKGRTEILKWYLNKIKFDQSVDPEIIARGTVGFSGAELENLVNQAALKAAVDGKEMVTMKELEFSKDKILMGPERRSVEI
Test: methyl-TROSY NMR titration
Format: binding

Nc1ncnc2c1ncn2[C@@H]1O[C@H](COP(=O)(O)OP(=O)(O)O)[C@@H](O)[C@H]1O [ADP]
Kd: 4.6 ± 2.3 µM
